Results published in patent publication US11085081B2, “Methods and materials for determining pain sensitivity and predicting and treating related disorders” (The University of North Carolina at Chapel Hill, priority 2004, dated 2021).

Legend:
[1] = tested on: TNFα, IL-1β, and IL-6; experiment: In vivo plasma cytokine measurement (ELISA); parameters: species or system rat; details: rats; ICI118,551 or SR59230A prior to OR486, low, middle and high dose pooled; relative to vehicle prior to OR486
Experimental: Blood was centrifuged and plasma separated from red blood cells. Plasma IL-6 was measured in duplicate using enzyme-linked immunosorbant assay (ELISA) kits from R&D systems (Minneapolis, Minn., U.S.A.). Plasma TNFα and IL-1β were measured in duplicate by the University of North Carolina Proteomics Ilmmunotechnologies Core using ELISA kits from Biosource (Camarillo, Calif., U.S.A.) and the National Institute for Biological Standards and Control (UK), respectively.

[2] = tested on: 3T3-L1 adipocytes; experiment: In vitro cytokine measurement (real time PCR of transcripts) in adipocytes; type: cell-based, mouse
Experimental: Cell growth media consisted of Dulbecco's modified Eagle's medium supplemented with 10% heat-inactivated fetal bovine serum (Sigma, St. Louis, Mo., U.S.A.) and 1× penicillin-streptomycin (Gibco, Carlsbad, Calif., U.S.A.). Cells were maintained in a humidified atmosphere of 95% air and 5% CO2.
Two days after reaching confluence in growth media, adipogenesis was induced by incubating cells in growth media containing 0.25 μM dexamethasone (Sigma), 0.5 mM IBMX (Sigma), and 1 μM insulin (Sigma). After an additional 2 days in growth media containing 1 μM insulin, cells were grown for 6-8 days in normal growth media.
Total RNA was isolated using the RNeasy Mini Kit (Qiagen, Valencia, Calif., U.S.A.). RNA was then treated with 2 units of DNase I (Ambion, Austin, Tex., U.S.A.) at 37° C. for 30 min. Reverse transcription was performed according to the manufacturer's instructions. Briefly, the reverse transcription reaction mixture consisted of 1 μg DNase 1-treated RNA, 500 ng oligo-dT12-18, 10 mM dNTP, 40 units RNasin (Promega, Madison, Wis., U.S.A.), and 200 units of reverse transcriptase SUPERSCRIPT III™ (Invitrogen, Carlsbad, Calif., U.S.A.). cDNA synthesis was carried out at 50° C. for 1 hr followed by inactivation of reverse transcriptase at 70° C. for 15 min.
Mouse macrophages (RAW 264.7) and […] preadipocytes (3T3-L1) were obtained from the University of North Carolina Tissue Culture Facility. Cell maintenance and 3T3-L1 preadipocyte differentiation is described herein below. For pharmacological experiments, cells were seeded at a density of 5×10^5 cells/well in a 12-well plate (Corning). Total RNA was isolated and reverse transcribed as described in the supplementary materials. TNFα, IL-1β, and IL-6 transcripts were quantitated in quadruplicate by real time polymerase chain reaction using TAQMAN® Gene Expression Assays (Applied Biosystems, Foster City, Calif., U.S.A.) in an ABI PRISM 7000 Sequence Detection System. TNFα, IL-1β, and IL-6 transcript levels were normalized to Glyceraldehyde-3-phosphate dehydrogenase (GAPDH).

[3] = tested on: Sprague-Dawley rats; experiment: Mechanical and thermal pain behavior testing (von Frey monofilaments, radiant heat); type: in vivo, rat; details: for blockade of OR486-induced hyperalgesia / heightened pain sensitivity: antagonist i.p. prior to OR486; for paw withdrawal latency to radiant heat after OR486, selective βAR antagonists: i.p. 10 min prior to OR486, ICI118,551 5.0 mg/kg; for paw withdrawal latency to radiant heat after OR486, selective βAR antagonists / paw withdrawal frequency to mechanical stimuli after OR486, selective βAR antagonists / paw withdrawal threshold to mechanical stimuli after OR486, selective βAR antagonists: SR59230A 5 or 50 mg/kg, betaxolol 0.1, 1.0, 10 mg/kg, relative to vehicle prior to OR486; for paw withdrawal frequency to mechanical stimuli after OR486, selective βAR antagonists / paw withdrawal threshold to mechanical stimuli after OR486, selective βAR antagonists: i.p. 10 min prior to OR486, ICI118,551 0.5 or 5.0 mg/kg; for paw withdrawal frequency to mechanical stimuli, antagonist in the absence of OR486 / paw withdrawal latency to radiant heat, antagonist in the absence of OR486 / paw withdrawal threshold to mechanical stimuli, antagonist in the absence of OR486: i.p. 10 min prior to vehicle, phentolamine 3, propranolol 3, SCH23390 0.2, spiperone 0.2, betaxolol 1.0, ICI118,551 0.5, SR59230A 5 mg/kg, relative to vehicle
Experimental: Rats were placed in plexiglass cages positioned over an elevated perforated stainless steel platform and habituated to the environment for 15-25 min prior to testing. Paw withdrawal threshold to punctate mechanical stimulation was assessed using the up-down method of Chaplan et al. (1994). A series of nine calibrated filaments (with bending forces of 0.40, 0.68, 1.1, 2.1, 3.4, 5.7, 8.4, 13.2, and 25.0 g; Sammons Preston Rolyan, Bolingbrook, Ill., U.S.A.) with approximately equal logarithmic spacing between stimuli (Mean±SEM: 0.232±0.04 units) were presented to the hind paw in successive order, whether ascending or descending. Filaments were positioned in contact with the hind paw for a duration of 3 s or until a withdrawal response occurred. Testing was initiated with the middle hair of the series (3.4 g). In the absence of a paw withdrawal response, an incrementally stronger filament was presented and in the event of a paw withdrawal, an incrementally weaker filament was presented. After the initial response threshold was crossed, this procedure was repeated four times in order to obtain a total of six responses in the immediate vicinity of the threshold. The presence of paw withdrawal (X) and absence of withdrawal (O) was noted together with the terminal filament used in the series of six responses. The 50% g threshold=(10^[Xf+kδ])/10,000, where Xf=value (in log units) of the final von Frey hair used; k=tabular value of pattern of positive (X) and negative (O) responses, and δ=mean difference (in log units) between stimuli.
Immediately following determination of the response threshold, paw withdrawal frequency (%) to punctate mechanical stimulation was assessed. A von Frey monofilament with a calibrated bending force of 25 g was presented to the hind paw 10 times for a duration of 1 s with an interstimulus interval of approximately 1 s. Mechanical hyperalgesia was defined as an increase in the percentage frequency ([# of paw withdrawals/10]×100) of paw withdrawal evoked by stimulation with von Frey monofilaments.
Thermal hyperalgesia was evaluated using the radiant heat method of Hargreaves et al. (1988) in the same animals evaluated for responsiveness to von Frey monofilaments. Radiant heat was presented through the floor of a finely perforated stainless steel platform to the midplantar region of the hind paw.
After establishing stable baseline responsiveness to mechanical and thermal stimuli, separate groups of rats received intraperitoneal injections of OR486 (30 mg/kg i.p.; N=8) or vehicle (N=8) one hour prior to behavioral testing. Responsiveness to von Frey filaments was reassessed at 30 min intervals for 2 hours. Paw withdrawal latencies to radiant heat were subsequently assessed at 2.5 hours into the testing procedure. Twenty-four hours later, baseline responsiveness to mechanical and thermal stimuli was reestablished. Animals received OR486 (30 mg/kg i.p.) or vehicle (consistent with the previous day). Thirty minutes following administration of drug or vehicle, separate groups of rats received intraplantar carrageenan (N=4 per group) or saline (N=4 per group). Responsiveness to von Frey filaments was reassessed at 30 min intervals for 2 hours following the induction of inflammation. Paw withdrawal latencies to radiant heat were subsequently assessed at 2.5 hours post carrageenan.
Rats were handled and habituated to the testing environment 2-3 days prior to establishing baseline responsiveness. On test days, rats were placed in plexiglass cages positioned over an elevated perforated stainless steel platform and habituated to the environment for 15-20 minutes prior to testing. Paw withdrawal threshold to punctate mechanical stimulation was assessed using the up-down method of Chaplan (Chaplan et al. (1994)). […]

[4] = tested on: Mouse macrophages (RAW 264.7); experiment: In vitro cytokine measurement (real time PCR of transcripts) in macrophages; type: cell-based
Experimental: Cell growth media consisted of Dulbecco's modified Eagle's medium supplemented with 10% heat-inactivated fetal bovine serum (Sigma, St. Louis, Mo., U.S.A.) and 1× penicillin-streptomycin (Gibco, Carlsbad, Calif., U.S.A.). Cells were maintained in a humidified atmosphere of 95% air and 5% CO2. Total RNA was isolated using the RNeasy Mini Kit (Qiagen, Valencia, Calif., U.S.A.). RNA was then treated with 2 units of DNase I (Ambion, Austin, Tex., U.S.A.) at 37° C. for 30 min. Reverse transcription was performed according to the manufacturer's instructions. Briefly, the reverse transcription reaction mixture consisted of 1 μg DNase 1-treated RNA, 500 ng oligo-[…], 10 mM dNTP, 40 units RNasin (Promega, Madison, Wis., U.S.A.), and 200 units of reverse transcriptase SUPERSCRIPT IIITM (Invitrogen, Carlsbad, Calif., U.S.A.). cDNA synthesis was carried out at 50° C. for 1 hr followed by inactivation of reverse transcriptase at 70° C. for 15 min. […] Cell maintenance and 3T3-L1 preadipocyte differentiation is described herein below. For pharmacological experiments, cells were seeded at a density of 5×10^5 cells/well in a 12-well plate (Corning). Total RNA was isolated and reverse transcribed as described in the supplementary materials. […] TNFα, IL-1β, and IL-6 transcript levels were normalized to Glyceraldehyde-3-phosphate dehydrogenase (GAPDH).

[5] = pretreatment 30 min: betaxolol 0.3 μM, ICI118,551 0.3 μM, SR59230A 0.1 μM, then salmeterol 0.5 μM 1 hr
[6] = salmeterol 0.5 μM, 1 hr treatment, normalized to GAPDH

SMILES | levels of IL-1β after OR486, selective β2 or β3 antagonist [1] | levels of IL-6 after OR486, selective β2 or β3 antagonist [1] | levels of TNFα after OR486, selective β2 or β3 antagonist [1] | blockade of salmeterol-induced increase in adipocyte TNFα and IL-6 transcript levels [2, 5] | blockade of OR486-induced hyperalgesia / heightened pain sensitivity [3] | paw withdrawal latency to radiant heat after OR486, selective βAR antagonists [3] | paw withdrawal frequency to mechanical stimuli after OR486, selective βAR antagonists [3] | paw withdrawal threshold to mechanical stimuli after OR486, selective βAR antagonists [3] | paw withdrawal frequency to mechanical stimuli, antagonist in the absence of OR486 [3] | paw withdrawal latency to radiant heat, antagonist in the absence of OR486 [3] | paw withdrawal threshold to mechanical stimuli, antagonist in the absence of OR486 [3] | blockade of salmeterol-induced increase in macrophage IL-1β and IL-6 transcript levels [4, 5] | blockade of CL316243-induced increase in adipocyte IL-6 transcript levels ([2]; pretreatment 30 min: betaxolol 0.3 μM, ICI118,551 0.3 μM, SR59230A 0.1 μM, then CL316243 0.3 μM 1 hr) | increase in IL-6 mRNA levels in adipocytes ([2]; salmeterol 0.5 μM or CL316243 0.3 μM, 1 hr treatment, normalized to GAPDH) | increase in TNFα mRNA levels in adipocytes [2, 6] | increase in IL-1β mRNA levels in macrophages [4, 6] | increase in IL-6 mRNA levels in macrophages [4, 6]
Cc1ccc(OCC(O)C(C)NC(C)C)c2c1CCC2 (single isomer, unassigned; (-)) [ICI118,551, (−)-1-(2,3-[dihydro-7-methyl-1H-inden-4-yl]oxy)-3-([1-methylethyl]-amino)-2-butanol] | decreased levels | decreased levels | decreased levels | completely blocked | partially blocked | increased paw withdrawal latency | decreased paw withdrawal frequency | increased paw withdrawal threshold | failed to affect | failed to affect | failed to affect | completely blocked | – | – | – | – | –
CCc1ccccc1OC[C@@H](O)CN[C@H]1CCCc2ccccc21 [SR59230A, (1-(2-ethylphenoxy)-3-[[(1S)-1,2,3,4-tetrahydro-1-naphthalenyl]amino]-(2S)-2-propanol)] | decreased levels | decreased levels | decreased levels | – | partially blocked | increased paw withdrawal latency | decreased paw withdrawal frequency | increased paw withdrawal threshold | failed to affect | failed to affect | failed to affect | – | completely blocked | – | – | – | –
OCc1cc(C(O)CNCCCCCCOCCCCc2ccccc2)ccc1O (stereo not drawn) [salmeterol] | – | – | – | – | – | – | – | – | – | – | – | – | – | 8 fold | 6 fold | 38 fold | 6.5 fold
